The test system of assay [1] is Melan A-specific CD8^+ T cells. The experiment in a line: Expansion of Melan-A26-35 specific CD8+ T cells in human PBMC/PBL cultures (tetramer). It is filed as cell-based. To be noted: for stimulation of antigen specific CTL responses in vitro: Example B, day 10, compared with αGal-Cer; for expansion of Melan-A26-35 specific T cells: human PBMC/PBL, FIG. 8. As to the method: Flow cytometry of day 10-15 cultures of PBMCs co-cultured with autologous irradiated APCs, pulsed with Melan-A26-35 peptide were stained with the tetrameter and anti-CD8^+-FITC.
In these experiments, T cell expansion was measured, by pulsing human DCs from PBLs with 100 nM of the known, immunogenic peptide MelanA26-35, […]. The peptide was added to the DCs together with syngeneic PBLs from the same donor. To detail these experiments more fully, samples of DCs were irradiated with 3000 rads followed by a 3 hour pulse with the peptide, in serum free medium.
The cells were then washed thoroughly and incubated with autologous, PBLs, at a 1:10 ratio, in RPMI 1640/5% human serum. Recombinant human IL-2 was added at 10 U/ml from day 4 to day 7. At day 10, following the addition of the PBLs, cells were analyzed. Cultured cells were stained with anti-CD8 and A2/MelanA25-35 tetramer. The percentage of MelanA specific CD8 T cells out of total CD8 positive cells was measured by FACS analysis.

For assay [2], the system named is human monocyte derived DCs. The experiment in a line: Example A: DC maturation markers in human monocyte derived DC with NKT cells (FACS). It is filed as cell-based. To be noted: 100 ng/ml, 36 hours, 10 DC/NKT cell. As to the method: The methodology of Salio, et al., J. Immunol., 167:1188-1197 (2001), incorporated by reference, was followed. In brief, 2×105 human monocyte derived DCs were pulsed with 100 ng/ml of one of Compounds 2, 3, αGal-Cer, or vehicle solution, as a control. For DC pulsing, each of arabinitol ceramide (Compound 1), threitol ceramide (Compound 3), glycerol ceramide (Compound 2) and αGal-Cer was solubilized in vehicle solution (0.5% Tween 20/PBS), and added to the medium of the DC cultures. […] After 36 hours, supernatant was removed from cultures and analyzed for the presence of known DC maturation markers CD83, CD80, CD86, CD25, and CD38, all of which were analyzed via FACS, using well known methods.

The next assay concerns p40 form of IL-12. The assay can be described thus: Example A: IL-12 p40 ELISA as indication of DC stimulation. The class given is cell-based, human. In general terms: ELISA stands for enzyme-linked immunosorbent assay.
For a further assay, the system named is human DC. The assay can be described thus: DC maturation in co-culture of human DC and iNKT cells (flow cytometry CD83, CD86, CD38). The class given is cell-based. To be noted: for DC maturation (upregulation of CD83, CD86 and CD38): human DC with iNKT cell clone, 24 hours; for concentration inducing maximal DC maturation: titration on DC, 48 h. The protocol:
Different analogs of α-GalCer as indicated or LPS were added to co-cultures of human DC and iNKT cells. (A) Maturation of the DC was assessed after 40 h, gating on CD11c positive cells. Histograms indicate the CD83 and CD86 profiles of DC from different treatments; the percentages indicate the percentage of CD83hi mature DC and the numbers in parenthesis, the mean fluorescence intensity of the population contained within the labeled gate. DC and iNKT cells were co-cultured in the presence of different analogs of α-GalCer for 24 hours. Supernatants were analyzed using ELISA for the presence of (B) IL-12p40 released by the DC and (C) IFN-γ from the iNKT cells. […] Cells were co-cultured in the presence of the indicated concentration of analog and the percentages of DC with increased CD83/CD80 are shown. […] Viability of α-GalCer or analog-pulsed DC was assessed after 40 h co-culture in the presence of iNKT cells by flow cytometry. Cells were stained with propidium iodide and the percentage of live CD11c gated cells remaining in the culture are shown.
Human monocyte-derived DC were pulsed with 150 ng of different inositol analogs and co-cultured with iNKT cells for 24 h. […] Numbers indicate the mean fluorescence intensity of the histogram gated on CD11c^+ cells.
Immature human DC were cultured in the presence of a human iNKT cell clone with or without analogs or vehicle at different concentrations.
To compare the functions of high affinity α-GalCer, intermediate affinity threitolceramide with the known, low affinity analog OCH, the three compounds were titrated onto DC and used to present to iNKT cells. Maturation of DC and DC viability were examined after 48 h.

A further assay deals with NKT cells. To be noted: cancer patients, after treatment; cited from earlier work.
A further assay addresses human CD1d (Homo sapiens, UniProt P15813). To be noted: acyl and sphingosine chains in A′ and C′ pockets; cited from earlier work.
In assay [3] the target is T1, human invariant Vα24^+/Vβ11^+ TCR binding to hCD1d-lipid complex (Homo sapiens, UniProt P15813).
T1 construct: soluble human CD1d molecules; made in house
The experiment in a line: Surface plasmon resonance (Biacore) of soluble iNKT TCR binding to hCD1d monomers loaded with analogs. To be noted: for pKd: equilibrium binding, read-out: Kd of the TCR binding to the monomer. The protocol:
Affinity and kinetics of iNKT TCR binding to hCD1d complexed with α-GalCer or OCH. Increasing concentrations from 0.4 μM to 194 μM (two-fold dilution) of iNKT TCR were injected for 5 seconds over the indicated hCD1d-GSL complexes. The binding responses of 5 concentrations are shown superimposed. The panels on the right show binding response at equilibrium.
The affinities of a soluble NKT cell TCR for human CD1d molecules refolded with different analogs of α-GalCer were measured. Equilibrium binding and kinetic measurements respectively were made for α-GalCer (A and B), threitolceramide (C and D), 4S-threitolceramide (E and F), 4R-threitolceramide (G and H). The Kd values (μM) were calculated from equilibrium binding. The Kon values shown were calculated from Koff and Kd.
We then assessed whether the length of the acyl and sphingosine chains could affect the affinity of iNKT TCR binding to glycolipid-CD1d complex. We refolded Vα24 and Vβ11 chains of the iNKT TCR as previously described (Gadola, Koch et al, J Exp Med, 2006, 203; 699-710) and used the purified and refolded iNKT TCR in surface plasmon resonance studies against immobilized biotinylated CD1d monomers loaded with either α-GalCer or OCH.
To characterize the affinity of analogs of α-GalCer, biotinylated hCD1d monomers were generated using previously described protocols (Karadimitris, Gadola et al, Proc Natl Acad Sci USA, 2001, 98; 3294-8) bound to the different analogs. Surface plasmon resonance (Biacore) analysis was performed using a soluble disulphide-linked human invariant Vα24^+/Vβ11^+ TCR (Gadola, Koch et al, J Exp Med, 2006, 203; 699-710) to measure the equilibrium dissociation constants (Kd) of binding of the TCR to different monomers (FIG. 3).

pKd: −log10 of the molar value.

Sequence of human CD1d (P15813 20-301 limits assumed): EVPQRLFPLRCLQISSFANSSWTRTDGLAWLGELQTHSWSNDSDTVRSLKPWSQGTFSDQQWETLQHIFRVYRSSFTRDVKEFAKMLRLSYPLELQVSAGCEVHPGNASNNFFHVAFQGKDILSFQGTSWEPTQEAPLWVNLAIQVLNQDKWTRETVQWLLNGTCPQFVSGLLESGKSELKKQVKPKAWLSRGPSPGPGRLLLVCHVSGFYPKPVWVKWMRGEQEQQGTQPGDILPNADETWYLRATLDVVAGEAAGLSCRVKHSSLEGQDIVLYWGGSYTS
Sequence of human CD1d (P61769 21-119 partner): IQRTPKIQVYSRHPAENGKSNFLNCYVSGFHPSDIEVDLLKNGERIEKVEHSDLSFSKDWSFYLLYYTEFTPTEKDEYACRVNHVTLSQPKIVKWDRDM

Regarding `CCCCCCCCCCCCCCCCCCCCCCCCCC(=O)N[C@@H](COC[C@@H](O)CO)[C@H](O)[C@H](O)CCCCCCCCCCCCCC` [Compound 2, Glycerol Ceramide], in assay [1], the “stimulation of antigen specific CTL responses in vitro” value was “more potent stimulators of antigen specific CTL responses, in vitro, than αGal-Cer”. In addition, the “induction of DC maturation markers (CD83, CD80, CD86, CD25, CD38)” value in assay [2] is given as “DC maturation markers are induced”. Also, in the assay on p40 form of IL-12, the “IL-12 potency, fold less potent than Compound 3” value was “approximately 1000 fold”.

Broadly, the pKd is the Kd on a negative log10 scale, so that one unit is a factor of ten. A word on the koff: it is the first-order rate constant of dissociation. Take `CCCCCCCCCCCCCCCCCCCCCCCCCC(=O)N[C@@H](CO[C@H]1OC(CO)[C@H](O)C(O)C1O)[C@H](O)[C@H](O)CCCCCCCCCCCCCC` (stereo partly drawn) [α-GalCer, α galactosylceramide, reference compound]: in the assay on human DC, the “DC maturation (upregulation of CD83, CD86 and CD38)” value was “significant upregulation of all the markers examined”; the “concentration inducing maximal DC maturation” value is 0.8 ng/mL. Besides, the “time until NKT cells in peripheral blood fell to undetectable levels” value with NKT cells is no more than 24 h. Also, the “shape complementarity (Sc)” value at human CD1d is recorded as 0.61. Also, in assay [3], the pKd was 5.89. For the same molecule, the koff in assay [3] (kinetic measurement, read-out: rate of dissociation (Koff) between the TCR and the monomer) was 0.37 s⁻¹.

Take `CCCCCCCCCCCCCCCCCCCCCCCCCC(=O)N[C@@H](COC[C@H](O)[C@@H](O)CO)[C@H](O)[C@H](O)CCCCCCCCCCCCCC` [Compound 3, Threitol Ceramide]: in the assay with human DC, the “DC maturation (upregulation of CD83, CD86 and CD38)” value was “more potent than glycerolceramide and arabinitolceramide”; the “concentration inducing maximal DC maturation” value is 67 ng/mL. Further, the “stimulation of antigen specific CTL responses in vitro” value in assay [1] is recorded as “more potent stimulators of antigen specific CTL responses, in vitro, than αGal-Cer”. The “expansion of Melan-A26-35 specific T cells” value in assay [1] (listed as threitol-ceramide) was “superior than glycerol-ceramide”. In assay [1] (listed as threitolceramide), the “expansion of Melan-A26-35 specific T cells” value was “at least as effective as with DC pulsed with α-GalCer”. Further, the pKd in assay [3] is 5.24. Also, the “rate of dissociation (Koff) between the TCR and the monomer” value in assay [3] (kinetic measurement) was 1.04 s⁻¹. In assay [2], the “induction of DC maturation markers (CD83, CD80, CD86, CD25, CD38)” value is “DC maturation markers are induced”. The “IL-12 potency relative to αGal-Cer” value in the assay with p40 form of IL-12 is listed as “approximately 50%”.

(Values after US8039670B2, “Analogs of alpha galactosyceramide and uses thereof” (Ludwig Institute for Cancer Research, priority 2005, dated 2011).)
